From the CheMixHub viscosity set

Assay: xn = mol fraction of the nth substance listed

CCCOC(=O)CC + CCCCCC
298.15 K, 101.33 kPa
Conditions | viscosity [mPa·s]
x1 = 0.0581 | 0.299
x1 = 0.1227 | 0.31
x1 = 0.2151 | 0.33
x1 = 0.3111 | 0.355
x1 = 0.3983 | 0.379
x1 = 0.4343 | 0.389
x1 = 0.4898 | 0.401
x1 = 0.5466 | 0.421
x1 = 0.586 | 0.433
x1 = 0.68 | 0.465
x1 = 0.8894 | 0.557
x1 = 0.9133 | 0.573

CCC(C)c1ccccc1 (stereo not given) + CCCCCCCCCCCC
viscosity [mPa·s], 102 kPa
Conditions | x1 = 0.1008 | x1 = 0.2007 | x1 = 0.2993 | x1 = 0.4003 | x1 = 0.4998 | x1 = 0.62 | x1 = 0.6996 | x1 = 0.7999 | x1 = 0.9004
293.15 K | 1.41 | 1.33 | 1.26 | 1.19 | 1.131 | 1.064 | 1.027 | 0.992 | 0.959
303.15 K | 1.19 | 1.128 | 1.072 | 1.02 | 0.971 | 0.923 | 0.896 | 0.862 | 0.835
313.15 K | 1.015 | 0.973 | 0.935 | 0.893 | 0.853 | 0.812 | 0.784 | 0.755 | 0.732
323.15 K | 0.888 | 0.852 | 0.817 | 0.783 | 0.751 | 0.717 | 0.694 | 0.669 | 0.649

O=C(O)c1cccnc1 + O
viscosity [mPa·s]
Conditions | 100 kPa | 101 kPa
298.15 K, x1 = 0.000225 | 0.8934 | 0.8934
298.15 K, x1 = 0.000268 | 0.903 | –
298.15 K, x1 = 0.000452 | 0.8963 | 0.8963
298.15 K, x1 = 0.0005074 | – | 0.8966
298.15 K, x1 = 0.0007821 | – | 0.9016
298.15 K, x1 = 0.000808 | 0.908 | –
298.15 K, x1 = 0.000907 | 0.902 | 0.902
298.15 K, x1 = 0.00135 | 0.913 | –
298.15 K, x1 = 0.0015 | – | 0.893
298.15 K, x1 = 0.00162 | 0.916 | –
303.15 K, x1 = 0.000542 | 0.809 | –
303.15 K, x1 = 0.000808 | 0.812 | –
303.15 K, x1 = 0.00108 | 0.814 | –
308.15 K, x1 = 0.000452 | – | 0.7233
308.15 K, x1 = 0.0005074 | – | 0.7239
308.15 K, x1 = 0.00108 | 0.746 | –
308.15 K, x1 = 0.001153 | – | 0.7288
308.15 K, x1 = 0.001301 | – | 0.7321
308.15 K, x1 = 0.00135 | 0.75 | –
308.15 K, x1 = 0.00136 | 0.732 | 0.732
308.15 K, x1 = 0.001617 | – | 0.7347
308.15 K, x1 = 0.00162 | 0.754 | –
308.15 K, x1 = 0.001957 | – | 0.7385
313.15 K, x1 = 0.000808 | 0.673 | –
313.15 K, x1 = 0.00108 | 0.677 | –
313.15 K, x1 = 0.00135 | 0.681 | –
313.15 K, x1 = 0.00162 | 0.685 | –
318.15 K, x1 = 0.000225 | 0.5976 | 0.5976
318.15 K, x1 = 0.000268 | 0.61 | –
318.15 K, x1 = 0.000542 | 0.614 | –
318.15 K, x1 = 0.0007 | – | 0.584
318.15 K, x1 = 0.0007821 | – | 0.602
318.15 K, x1 = 0.000808 | 0.617 | –
318.15 K, x1 = 0.000907 | 0.6036 | 0.6036
318.15 K, x1 = 0.00108 | 0.62 | –
318.15 K, x1 = 0.001153 | – | 0.6035
318.15 K, x1 = 0.00135 | 0.624 | –
318.15 K, x1 = 0.00136 | 0.608 | 0.608
318.15 K, x1 = 0.0015 | – | 0.587
318.15 K, x1 = 0.001617 | – | 0.6081
318.15 K, x1 = 0.00162 | 0.628 | –
318.15 K, x1 = 0.001957 | – | 0.61
318.15 K, x1 = 0.0022 | – | 0.589

Nc1cccc(Cl)c1 + CCC(C)O
viscosity [mPa·s], 101 kPa
Conditions | x1 = 0.0889 | x1 = 0.1799 | x1 = 0.2733 | x1 = 0.3691 | x1 = 0.4674 | x1 = 0.5683 | x1 = 0.6719 | x1 = 0.7783 | x1 = 0.8876
303.15 K | 2.756 | 2.919 | 3.087 | 3.256 | 3.422 | 3.585 | 3.744 | 3.904 | 4.07
308.15 K | 2.318 | 2.483 | 2.65 | 2.817 | 2.983 | 3.148 | 3.313 | 3.48 | 3.654
313.15 K | 2.001 | 2.157 | 2.312 | 2.467 | 2.623 | 2.779 | 2.937 | 3.097 | 3.261
318.15 K | 1.706 | 1.857 | 2.003 | 2.147 | 2.29 | 2.434 | 2.579 | 2.727 | 2.874

CCCOC(=O)CC + CCCCCCCCCC
298.15 K, 101.33 kPa
Conditions | viscosity [mPa·s]
x2 = 0.0964 | 0.647
x2 = 0.1323 | 0.65
x2 = 0.1683 | 0.653
x2 = 0.2534 | 0.661
x2 = 0.3486 | 0.672
x2 = 0.3989 | 0.68
x2 = 0.5459 | 0.706
x2 = 0.6381 | 0.728
x2 = 0.7337 | 0.756
x2 = 0.8679 | 0.802
x2 = 0.9275 | 0.827

CCCCN(CCO)CCCC + O=S=O
303.15 K, 100 kPa
Conditions | viscosity [mPa·s]
x2 = 0.17 | 19.3
x2 = 0.33 | 198.3
x2 = 0.45 | 2527

CC(=O)C=C(C)C + CCCCCOC(C)=O
298.15 K, 101 kPa
Conditions | viscosity [mPa·s]
x1 = 0.11 | 0.7593
x1 = 0.167 | 0.7461

[Cs+].[I-] + O
310.15 K, 101 kPa
Conditions | viscosity [mPa·s]
x1 = 0.000182 | 0.6958
x1 = 0.000913 | 0.6971
x1 = 0.001829 | 0.6934
x1 = 0.002695 | 0.6844
x1 = 0.003679 | 0.6676
x1 = 0.005197 | 0.6281
x1 = 0.005988 | 0.6009

[F-].[Na+] + O
viscosity [mPa·s], 101 kPa
Conditions | x1 = 0.0009 | x1 = 0.0018 | x1 = 0.002 | x1 = 0.0027 | x1 = 0.0036 | x1 = 0.005 | x1 = 0.009
303.15 K | 0.809 | 0.82 | 0.819 | 0.826 | 0.835 | 0.853 | 0.896
308.15 K | 0.734 | 0.746 | 0.747 | 0.755 | 0.761 | 0.775 | 0.81
313.15 K | 0.667 | 0.682 | – | 0.688 | 0.694 | 0.707 | 0.738
318.15 K | 0.61 | 0.621 | 0.623 | 0.629 | 0.635 | 0.648 | 0.675

Nc1cccc(Cl)c1 + CC(=O)c1ccccc1
viscosity [mPa·s], 100 kPa
Conditions | x1 = 0.0807 | x1 = 0.1719 | x1 = 0.2629 | x1 = 0.3608 | x1 = 0.4656 | x1 = 0.5646 | x1 = 0.6658 | x1 = 0.7765 | x1 = 0.8859
303.15 K | 1.647 | 1.812 | 1.993 | 2.206 | 2.459 | 2.723 | 3.022 | 3.386 | 3.788
308.15 K | 1.538 | 1.688 | 1.85 | 2.041 | 2.266 | 2.5 | 2.764 | 3.084 | 3.436
313.15 K | 1.38 | 1.515 | 1.66 | 1.83 | 2.031 | 2.239 | 2.474 | 2.758 | 3.069
318.15 K | 1.218 | 1.337 | 1.466 | 1.616 | 1.793 | 1.976 | 2.183 | 2.433 | 2.707
